According to PubChem BioAssay (NCI):
“And” between values parts separate entries of the source, which are not always exact repeats. Equal entries are not always repeated.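 Exposure lasted 48 hours, with cells grown in 96-well plates and compounds tested at five concentrations. At the GI50, growth is halved. Definition used: TGI = concentration required for complete inhibition of growth.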

Tests used:
Experiment in all cases: NCI tumour cell line growth inhibition, 48 h
786-0 renal = system: 786-0 renal
A498 renal = system: A498 renal
A549 NSCLC = system: A549 NSCLC
ACHN renal = system: ACHN renal
BT-549 breast = system: BT-549 breast
CAKI-1 renal = system: CAKI-1 renal
CCRF-CEM leukemia = system: CCRF-CEM leukemia
COLO 205 colon = system: COLO 205 colon
DLD-1 colon = system: DLD-1 colon
DMS 114 small cell lung = system: DMS 114 small cell lung
DMS 273 small cell lung = system: DMS 273 small cell lung
DU-145 prostate = system: DU-145 prostate
EKVX NSCLC = system: EKVX NSCLC
HCC-2998 colon = system: HCC-2998 colon
HCT-116 colon = system: HCT-116 colon
HCT-15 colon = system: HCT-15 colon
HL-60(TB) leukemia = system: HL-60(TB) leukemia
HOP-18 NSCLC = system: HOP-18 NSCLC
HOP-62 NSCLC = system: HOP-62 NSCLC
HOP-92 NSCLC = system: HOP-92 NSCLC
HT29 colon = system: HT29 colon
IGROV1 ovarian = system: IGROV1 ovarian
K-562 leukemia = system: K-562 leukemia
KM12 colon = system: KM12 colon
KM20L2 colon = system: KM20L2 colon
LOX IMVI melanoma = system: LOX IMVI melanoma
LXFL 529 NSCLC = system: LXFL 529 NSCLC
M14 melanoma = system: M14 melanoma
M19-MEL melanoma = system: M19-MEL melanoma
MALME-3M melanoma = system: MALME-3M melanoma
MCF7 breast = system: MCF7 breast
MDA-MB-435 = system: MDA-MB-435
MDA-N = system: MDA-N
MOLT-4 leukemia = system: MOLT-4 leukemia
NCI-H226 lung = system: NCI-H226 lung
NCI-H23 lung = system: NCI-H23 lung
NCI-H460 lung = system: NCI-H460 lung
NCI-H522 lung = system: NCI-H522 lung
NCI/ADR-RES ovarian = system: NCI/ADR-RES ovarian
OVCAR-3 ovarian = system: OVCAR-3 ovarian
OVCAR-4 ovarian = system: OVCAR-4 ovarian
OVCAR-5 ovarian = system: OVCAR-5 ovarian
OVCAR-8 ovarian = system: OVCAR-8 ovarian
PC-3 prostate = system: PC-3 prostate
RPMI-8226 leukemia = system: RPMI-8226 leukemia
RXF 393 renal = system: RXF 393 renal
RXF-631 renal = system: RXF-631 renal
SF-268 CNS = system: SF-268 CNS
SF-295 CNS = system: SF-295 CNS
SF-539 CNS = system: SF-539 CNS
SK-MEL-2 melanoma = system: SK-MEL-2 melanoma
SK-MEL-28 melanoma = system: SK-MEL-28 melanoma
SK-MEL-5 melanoma = system: SK-MEL-5 melanoma
SK-OV-3 ovarian = system: SK-OV-3 ovarian
SN12C renal = system: SN12C renal
SNB-19 CNS = system: SNB-19 CNS
SNB-75 CNS = system: SNB-75 CNS
SNB-78 CNS = system: SNB-78 CNS
SR leukemia = system: SR leukemia
SW-620 colon = system: SW-620 colon
TK-10 renal = system: TK-10 renal
U251 CNS = system: U251 CNS
UACC-257 melanoma = system: UACC-257 melanoma
UACC-62 melanoma = system: UACC-62 melanoma
UO-31 renal = system: UO-31 renal
XF 498 CNS = system: XF 498 CNS
HS 578T breast = system: HS 578T breast
P388/ADR leukemia = system: P388/ADR leukemia
T-47D breast = system: T-47D breast

O=C(NCCCCCCCCNC(=O)c1cccc2ccccc12)c1cccc2ccccc12
TGI (786-0 renal): 23.3 µM | TGI (A498 renal): 56.8 µM | TGI (A549 NSCLC): > 100 µM | TGI (ACHN renal): 60.8 µM | TGI (BT-549 breast): > 100 µM | TGI (CAKI-1 renal): 52.8 µM | TGI (CCRF-CEM leukemia): > 100 µM | TGI (COLO 205 colon): > 100 µM | TGI (DLD-1 colon): > 100 µM | TGI (DMS 114 small cell lung): > 100 µM | TGI (DMS 273 small cell lung): > 100 µM | TGI (DU-145 prostate): > 100 µM | TGI (EKVX NSCLC): > 91.7 µM | TGI (HCC-2998 colon): > 100 µM | TGI (HCT-116 colon): > 83.4 µM | TGI (HCT-15 colon): > 100 µM | TGI (HL-60(TB) leukemia): > 100 µM | TGI (HOP-18 NSCLC): > 81.4 µM | TGI (HOP-62 NSCLC): 13.5 µM | TGI (HOP-92 NSCLC): 20.4 µM | TGI (HT29 colon): > 100 µM | TGI (IGROV1 ovarian): > 76.1 µM | TGI (K-562 leukemia): > 100 µM | TGI (KM12 colon): > 100 µM | TGI (KM20L2 colon): > 100 µM | TGI (LOX IMVI melanoma): > 100 µM | TGI (LXFL 529 NSCLC): > 100 µM | TGI (M14 melanoma): > 87 µM | TGI (M19-MEL melanoma): > 100 µM | TGI (MALME-3M melanoma): > 100 µM | TGI (MCF7 breast): > 100 µM | TGI (MDA-MB-435): > 100 µM | TGI (MDA-N): > 100 µM | TGI (MOLT-4 leukemia): > 100 µM | TGI (NCI-H226 lung): 22.8 µM | TGI (NCI-H23 lung): > 79.6 µM | TGI (NCI-H460 lung): > 100 µM | TGI (NCI-H522 lung): > 46.4 µM | TGI (NCI/ADR-RES ovarian): > 100 µM | TGI (OVCAR-3 ovarian): > 79.9 µM | TGI (OVCAR-4 ovarian): 19 µM | TGI (OVCAR-5 ovarian): > 100 µM | TGI (OVCAR-8 ovarian): 79.5 µM | TGI (PC-3 prostate): > 100 µM | TGI (RPMI-8226 leukemia): > 100 µM | TGI (RXF 393 renal): 7.74 µM | TGI (RXF-631 renal): > 82 µM | TGI (SF-268 CNS): > 81.8 µM | TGI (SF-295 CNS): > 56.1 µM | TGI (SF-539 CNS): 34 µM | TGI (SK-MEL-2 melanoma): > 100 µM | TGI (SK-MEL-28 melanoma): > 94.4 µM | TGI (SK-MEL-5 melanoma): > 100 µM | TGI (SK-OV-3 ovarian): 41.6 µM | TGI (SN12C renal): > 100 µM | TGI (SNB-19 CNS): > 59.5 µM | TGI (SNB-75 CNS): 13.2 µM | TGI (SNB-78 CNS): 48.3 µM | TGI (SR leukemia): > 100 µM | TGI (SW-620 colon): > 100 µM | TGI (TK-10 renal): 43.3 µM | TGI (U251 CNS): 45.6 µM | TGI (UACC-257 melanoma): > 100 µM | TGI (UACC-62 melanoma): > 79.9 µM | TGI (UO-31 renal): 27.4 µM | TGI (XF 498 CNS): 20.9 µM

COc1cc2cc(c1Cl)N(C)C(=O)C[C@H](OC(=O)[C@H](C)N(C)C(C)=O)[C@]1(C)O[C@H]1[C@H](C)[C@@H]1C[C@@](O)(NC(=O)O1)[C@H](OC)C=C/C=C(\C)C2
GI50 (786-0 renal): 0.0019 µM | GI50 (ACHN renal): 0.00211 µM | TGI (ACHN renal): 0.0595 µM | GI50 (BT-549 breast): 0.000623 µM | GI50 (DU-145 prostate): 0.0553 µM | TGI (HOP-18 NSCLC): > 95.6 µM and 239 µM | GI50 (HS 578T breast): 0.000745 µM | GI50 (M14 melanoma): 0.00128 µM | GI50 (MDA-MB-435): 0.00168 µM | TGI (MDA-MB-435): 0.00755 µM and < 0.0146 µM | TGI (MDA-N): 0.0709 µM and 0.0274 µM | TGI (P388/ADR leukemia): 1.87 µM and 9.07 µM | GI50 (PC-3 prostate): 0.0371 µM | GI50 (SR leukemia): 0.000336 µM | TGI (SR leukemia): 0.0106 µM | GI50 (T-47D breast): 0.0142 µM | TGI (T-47D breast): 0.0714 µM | GI50 (TK-10 renal): 0.0144 µM | TGI (TK-10 renal): 0.0804 µM
